How the values were obtained:
TGF-β1 = TGF-β1 mRNA expression in anti-CD28-stimulated splenocytes (RT-PCR, relative to GAPDH); assay type: cell-based; conditions: splenocytes of diabetic NOD mice, 2 ng/ml anti-mouse CD28, 100 mM peptide, 72 hr
Method: (§1) The end of the tail of the experimental animals prepared as in Example 2-1 was wounded once a week, and a drop of blood therefrom was measured for blood glucose levels using a glucometer (Roche, Accu-CHEK Performa). The blood glucose levels were confirmed to be “high” (600 mg/dL or more), the mice were subjected to cervical dislocation, and the spleen was extracted therefrom. A cell strainer (BD, 352350) was placed on a 50 ml tube, and the extracted spleen tissue was passed through the cell strainer using the plunger end of a syringe, after which the tube containing the strained cells was added with HBSS (Hanks' Balanced Salt solution) so that the cells were washed with water, followed by centrifugation (1,000 rpm, 5 min) to remove the supernatant. The cells were suspended with 1 ml of HBSS, added with 10 ml of 1×RBC lysis buffer (Ebioscience, 00-4333-57), mixed with gentle stirring, allowed to stand in ice for 5 min, and then centrifuged (1,000 rpm, 5 min) to remove the supernatant. The resulting cells were added with 10 ml of a RBC lysis buffer once more, allowed to stand in ice for 5 min, further centrifuged (1,000 rpm, 5 min) to remove the supernatant, and then washed two times with 10 ml of HBSS. After final centrifugation (1,000 rpm, 5 min), the cells were suspended with 1 ml of HBSS, 50 μl of the cells were diluted with a trypan blue solution at 1:1, and the number of cells was counted using a hemocytometer. […]
(§2) Thereafter, the cells were centrifuged (1,000 rpm, 5 min) to remove the supernatant, lysed through pipetting with 5 ml of TRIzol (Invitrogen, 15596-018), and allowed to stand at room temperature for 5 min. […] RNA was eluted by adding 30 μl of DEPC-treated water and quantified.
(§3) cDNA was synthesized through the experimental procedure for a cDNA synthesis kit (ELPISbio, EBT-1512) using […] of the quantified RNA. Then, in accordance with the procedure for a PCR (Polymerase Chain Reaction) kit (Solgent, SEF01-M50H), cDNA of each cytokine (IFN-γ, TNF-α, TGF-β1) and a housekeeping gene GAPDH for quantitative determination of changes in cytokine expression were amplified. […]

IFN-γ = IFN-γ mRNA expression in anti-CD28-stimulated splenocytes (RT-PCR, relative to GAPDH); assay type: cell-based; conditions: splenocytes of diabetic NOD mice, 2 ng/ml anti-mouse CD28, 100 mM peptide, 3 hr
Method: as §1, §2, §3

TNF-α = TNF-α mRNA expression in anti-CD28-stimulated splenocytes (RT-PCR, relative to GAPDH); assay type: cell-based; conditions: splenocytes of diabetic NOD mice, 2 ng/ml anti-mouse CD28, 100 mM peptide, 3 hr
Method: as §1, §2, §3

[1] = test system: NOD/ShiLtJ mice with type 1 diabetes; assay: Effect of lowering blood glucose levels in animals with type 1 diabetes; assay type: in vivo, mouse; conditions: NOD mice with type 1 diabetes, 5 mg/kg SC every morning and evening, up to 14 days, two animals; negative control (PBS) continuously increased
Source text: (§4) The experimental animals were 8-week-old female NOD/ShiLtJ (Jackson Lab). NOD (Non-obese diabetic) mice are animal models of insulitis and type 1 diabetes. In these animals, it is known that type 1 diabetes occurs at 18 weeks of age on average and 90% of incidence thereof occurs by 30 weeks of age. All animals were housed under SPF barrier conditions. This study was approved by the Institutional Animal Care and Use Committee of Osong Medical Innovation Foundation Laboratory Animal Center (Kbio-IACUC-2018-066). The acclimation period was 1 week, and the light/dark cycle was 12 hr ([…]). The temperature was 20±2° C., and the relative humidity was 60 to 80%. Since the incidence of diabetes may be inhibited by intestinal microorganisms, water, the pH of which was adjusted to 2.8-3.2 using HCl, was supplied to the experimental animals.
The end of the tail of the experimental animals prepared above was wounded once a week and a drop of blood therefrom was measured for blood glucose levels using a glucometer (Roche, Accu-CHEK Performa). When the blood glucose levels were measured to be 250 mg/dL or more and the blood glucose levels remeasured on the third day thereafter was also 250 mg/dL or more, type 1 diabetes was considered to have occurred, and the experiment was conducted. […]

[2] = test system: NOD/ShiLtJ mice with type 1 diabetes (insulitis); assay: Effect of inhibiting or reducing development of insulitis (insulitis score of pancreatic islets, H&E); assay type: in vivo, mouse; conditions: NOD mice with type 1 diabetes, 5 mg/kg SC every morning and evening for 14 days, pancreas on 14th day
Source text: as §4
The end of the tail of the experimental animals prepared above was wounded once a week and a drop of blood therefrom was measured for blood glucose levels using a glucometer (Roche, Accu-CHEK Performa). When the blood glucose levels were measured to be 250 mg/dL or more and the blood glucose levels remeasured on the third day thereafter was also 250 mg/dL or more, type 1 diabetes was considered to have occurred, and the experiment was conducted.
Two experimental animals with type 1 diabetes were selected as the treatment group of Example 1, and were subcutaneously (SC) administered with 100 μl of the peptide of Example 1 (5 mg/kg). The administration was performed every morning and evening for 14 days, and the blood glucose levels were measured using a glucometer. […] On the 14th day, one experimental animal, the blood glucose levels of which were measured to be less than 250 mg/dL, was selected as a normal group, and was used to compare the insulitis scores of experimental animals with type 1 diabetes and experimental animals without type 1 diabetes.
After measurement of the blood glucose levels on the 14th day, the pancreas was removed from the experimental animals and fixed in 10% […] buffered formalin (10% NBF, Sigma, HT5011) to manufacture a paraffin block. […] For the treatment group of Example 1, the number of islets in two animals was measured, individual islets were classified depending on the stage of insulitis to thus determine the insulitis score, and the number of islets corresponding to each insulitis stage among the total number of islets was represented as a percentage. For the negative control group and the normal group, the insulitis scores were determined as in the treatment group of Example 1, after which the number of islets corresponding to each insulitis stage among the total number of islets was represented as a percentage. […]

## GAGAGY [Comparative Example 1]
TGF-β1
  TGF-β1 mRNA expression level compared to the negative control group (anti-CD28): did not greatly change
IFN-γ
  IFN-γ mRNA expression level compared to the negative control group (anti-CD28): did not greatly change
TNF-α
  TNF-α mRNA expression level compared to the negative control group (anti-CD28): did not greatly change

## YGAGAG [Comparative Example 2]
TGF-β1
  TGF-β1 mRNA expression level compared to the negative control group (anti-CD28): did not greatly change
IFN-γ
  IFN-γ mRNA expression level compared to the negative control group (anti-CD28): did not greatly change
TNF-α
  TNF-α mRNA expression level compared to the negative control group (anti-CD28): increase

## YGAGAGAGY [Example 1]
[1]
  blood glucose levels: decreased significantly and then remained in the normal range
TGF-β1
  TGF-β1 mRNA expression level compared to the negative control group (anti-CD28): increased
[2]
  percentage of islets in insulitis stage 3 compared to the negative control group: decreased
  percentage of islets in stage 0 (no insulitis) compared to the negative control group: approximately doubled
  percentage of islets in stage 0 compared to the normal group: higher
  percentages of islets in insulitis stages 0-2 compared to the negative control group: increased
IFN-γ
  IFN-γ mRNA expression level compared to the negative control group (anti-CD28): reduced
TNF-α
  TNF-α mRNA expression level compared to the negative control group (anti-CD28): reduced
